Laboratory results published in paper PMC4253628, “Antiviral effects against EV71 of pimprinine and its derivatives isolated from Streptomyces sp” (Virology Journal, 2014).

Columns and labels:
EV71 [1] = test: Antiviral activity of MAO inhibitors against EV71; format: cell-based, Enterovirus 71
CVB3 [2] = test: Antiviral activity of MAO inhibitors against CVB3; format: cell-based, Coxsackievirus B3
[3] = Cytotoxicity, MTT method, uninfected RD cells; format: cell-based; conditions: human
Protocol: (§1) The 50% cell cytotoxic concentrations (CC50s) of compounds were calculated using SPSS software. SI were calculated from the ratio of CC50: EC50.

EV71 [4] = test: Progeny virus yield reduction, EV71 in RD cells; format: cell-based, Enterovirus 71; conditions: for EC90: Enterovirus A, EV71, RD cells, progeny viral yield, read-out: EC90, compound concentration required to achieve 90% virus yield reduction
[5] = Cytotoxicity, MTT method, Hep-2 cells; format: cell-based; conditions: human
Protocol: as §1

[6] = Cytotoxicity, MTT method, HeLa cells; format: cell-based; conditions: human
Protocol: as §1

CVB3 [7] = test: Virus yield reduction assay, CVB3; format: cell-based, Coxsackievirus B3; conditions: Enterovirus B, CVB3; Hep-2 cells; — = less than 90% inhibition; read-out: EC90 CVB3, concentration required to inhibit 90% virus yield
ADV-7 [8] = test: Virus yield reduction assay, ADV-7; format: cell-based, adenovirus 7; conditions: Human mastadenovirus B; HeLa cells; read-out: EC90 ADV-7, concentration required to inhibit 90% virus yield
EV71 [9] = test: Adsorption analysis, EV71 on RD cells; format: cell-based, Enterovirus 71; conditions: 160 μM pimprinethine, 80 μM WS-30581 A, 80 μM WS-30581 B; EV71 10^4 TCID50; 2 h adsorption
EV71 [10] = conditions: EV71, RD cells
Protocol: (§2) Cell viability was assessed by an MTT assay, which functions based on the reduction of a MTT into formazan dye by active mitochondria. The cells were treated with 100 μL of MTT (1 mg/mL, Sigma) and incubated at 37°C for 4 h. The reaction was blocked by DMSO and measured in a microplate reader (Bio-Tek Instruments) at 492 nm. The untreated control was arbitrarily set as 100%.
(§3) Confluent cell monolayers in 96-well dishes were infected with 100 TCID50 of corresponding virus dilution mixed with serial dilutions of tested compounds for 1 h at 37°C. Inocula were aspirated and the cells were then incubated with various concentrations of DMEM/tested compounds at 37°C, 5% CO2 for 48 h. CPE were observed microscopically and the viability of the cells was determined using MTT assays. […] The concentrations required for the tested compounds to achieve 50% protection of cells from virus-induced CPE were determined.

EV71 [11] = test: microbe, parasite or virus in culture; conditions: Enterovirus A, EV71, RD, 48 h, read-out: EC50, compound concentration required to achieve 50% protection from virus-induced cytopathogenicity
Protocol: as §2, §3

CVB3 [12] = test: Inhibition of CVB3-induced CPE in Hep-2 cells; conditions: for EC50: Enterovirus B, CVB3, HEp-2, 48 h, read-out: EC50 CVB3; for SI CVB3, ratio CC50/EC50: Hep-2 cells
Protocol: as §2, §3

ADV-7 [13] = test: Inhibition of ADV-7-induced CPE in HeLa cells; conditions: for SI ADV-7, ratio CC50/EC50: HeLa cells; for EC50: Human mastadenovirus B, HeLa, 48 h, read-out: EC50 ADV-7
Protocol: as §2, §3

[14] = Cytotoxicity, MTT method, MDCK cells; format: cell-based, canine; conditions: dog, uninfected MDCK cells, host cells of H1N1: MDCK
Protocol: as §1

H1N1 [15] = test: Inhibition of H1N1-induced CPE in MDCK cells; format: cell-based, influenza virus A/human/Hubei/86/2009 (H1N1); conditions: MDCK cells
HSV-1 [16] = test: Virus yield reduction assay, HSV-1; format: cell-based, herpes simplex virus 1; conditions: Hep-2 cells; — = less than 90% inhibition
H1N1 [17] = test: Virus yield reduction assay, H1N1; format: cell-based, influenza virus A/human/Hubei/86/2009 (H1N1); conditions: MDCK cells; — = less than 90% inhibition
Protocol: Virus yield reduction assays were also carried out to evaluate further the protective effects of the tested compounds.
The virus suspension, serially diluted 10-fold with DMEM containing 2% FBS, was inoculated to cells in a 96-well plate. After 1 h incubation at 37°C in 5% CO2, unbinding virus was washed out and DMEM maintenance medium supplemented with 2% FBS was added to the cells. After 2 days, the infected cells were monitored for cytopathic effects (CPEs). The virus titer was calculated by the Reed–Muench method.

[18] = Cytotoxicity, ATPLite luminescence-based assay, RD cells; format: cell-based; conditions: human
Description: The ATPLite assay may be more sensitive to cytotoxicity than the MTT method. For RD and Hep-2 cells, similar results were obtained, and for HeLa and MDCK cells, the values of CC50 from the ATPLite assay were smaller than those from MTT assays (Tables 1, 2 and 3).

EV71 [19] = test: Dependence of anti-EV71 activity on virus inoculum (cell viability, MTT) in RD cells; format: cell-based, Enterovirus 71; conditions: virus concentration above 10^4 TCID50
EV71 [20] = test: Virucidal activity against EV71; format: cell-based, Enterovirus 71; conditions: 80 μM pimprinethine, 40 μM WS-30581 A or 40 μM WS-30581 B; 24 h at 4°C; 10^3 TCID50
EV71 [21] = test: Effective stage analysis, EV71 in RD cells; format: cell-based, Enterovirus 71; conditions: 48 h
EV71 [22] = test: Release analysis, EV71 from RD cells; format: cell-based, Enterovirus 71; conditions: 80 μM pimprinethine, 40 μM WS-30581 A or B; 12 h p.i.
HSV-1 [23] = test: Plaque reduction assay, HSV-1 in Hep-2 cells
Protocol: Confluent monolayers of Hep-2 cells, seeded in a 24-well plate, were infected with HSV-1 at a density of 60–80 plaque-forming units (PFU) per well and treated with media (pre-warmed DMEM containing 2% FBS, 0.8% low-melting agarose) mixed with or without the serially diluted tested compounds for the periods indicated following different procedures. The cells were incubated at 37°C until plaques appeared, followed by fixing with 10% formaldehyde and staining with 0.5% crystal violet. The plaques were counted by visual examination. The ratio of the number of plaques in the treated group to that in the untreated control was calculated.
A plaque reduction assay was performed to measure the inhibitory effects of the test compounds against HSV-1 infection.

Q: Which “antiviral activity against EV71” value (EV71 [1]) does the source give for `C#CCN(C)Cc1ccccc1` [pargyline] here?
A: The value was “inactive”.

Q: And the “antiviral activity against CVB3” value (CVB3 [2])?
A: The value was “inactive”.

Q: Which CC50 at 48 h [3] does the source give for `NC(=O)c1ncn([C@@H]2O[C@H](CO)[C@@H](O)[C@H]2O)n1` [Ribavirin, reference compound] here?
A: The CC50 at 48 h was 1230 ± 355 µM.

Q: And the “reduction in progeny virus titers” value (EV71 [4]; 160 μM, 100 TCID50 EV71, RD cells, 10 h)?
A: The value was roughly 2.0 log.

Q: And the EC90 (EV71 [4])?
A: Its EC90 is 136 ± 49 µM.

Q: And the CC50 at 48 h [5]?
A: The CC50 at 48 h was 1310 ± 385 µM.

Q: And the CC50 at 48 h [6]?
A: Its CC50 at 48 h is 1520 ± 243 µM.

Q: And the EC90 (CVB3 [7])?
A: The EC90 was 103 ± 17 µM.

Q: And the EC90 (ADV-7 [8])?
A: Its EC90 is 132 ± 22 µM.

Q: And the “virus titer during virus attachment (adsorption)” value (EV71 [9])?
A: Its value is “no significant decrease”.

Q: What about the “SI (selectivity index), ratio CC50/EC50” value (EV71 [10]) of the same compound?
A: The value was 12.

Q: And the EC50 (EV71 [11])?
A: The EC50 was 102 ± 68 µM.

Q: And the EC50 (CVB3 [12])?
A: The EC50 was 90 ± 10 µM.

Q: What about the “SI CVB3, ratio CC50/EC50” value (CVB3 [12]) of the same compound?
A: The value was 15.

Q: And the “SI ADV-7, ratio CC50/EC50” value (ADV-7 [13])?
A: Its value is 13.

Q: And the EC50 (ADV-7 [13])?
A: Its EC50 is 116 ± 19 µM.

Q: Which “antiviral activity against EV71” value (EV71 [1]) does the source give for `N[C@@H]1C[C@H]1c1ccccc1` [TCP] here?
A: Its value is “inactive”.

Q: What about the “antiviral activity against CVB3” value (CVB3 [2]) of the same compound?
A: The value was “inactive”.

Q: For `CCCCc1ncc(-c2c[nH]c3ccccc23)o1` [WS-30581 B], which CC50 at 48 h ([3]; RD cells, MTT, 48 h, mean ± SD of three experiments, read-out: CC50, compound concentration required to reduce cell viability by 50%) is on record?
A: Its CC50 at 48 h is 229 ± 10 µM.

Q: And the “reduction in progeny virus titers relative to virus control” value (EV71 [4]; 80 μM, 100 TCID50 EV71, RD cells, 10 h)?
A: The value was 3.0 log.

Q: What about the EC90 (EV71 [4]) of the same compound?
A: The EC90 was 18 ± 2 µM.

Q: What about the CC50 at 48 h ([5]; uninfected Hep-2 cells, host cells of CVB3: Hep-2, MTT, 48 h, read-out: CC50 (CVB3)) of the same compound?
A: The CC50 at 48 h was 83 ± 6 µM.

Q: And the CC50 at 48 h ([6]; uninfected HeLa cells, host cells of ADV-7: HeLa, MTT, 48 h, read-out: CC50 (ADV-7))?
A: The CC50 at 48 h was 354 ± 14 µM.

Q: What about the CC50 at 48 h [14] of the same compound?
A: Its CC50 at 48 h is 215 ± 28 µM.

Q: And the EC50 (H1N1 [15]; Influenza A virus, H1N1, 100 TCID50, 48 h, CPE, — = less than 50% inhibition, read-out: EC50 H1N1)?
A: Its EC50 is 24 ± 5 µM.

Q: What about the “SI H1N1, ratio CC50/EC50” value (H1N1 [15]) of the same compound?
A: The value was 9.

Q: What about the “inhibition of H1N1 infection” value (H1N1 [15]) of the same compound?
A: The value was “less than 70%”.

Q: And the EC90 (CVB3 [7])?
A: The EC90 was 42 ± 6 µM.

Q: And the “EC90 HSV-1, concentration required to inhibit 90% virus yield” value (HSV-1 [16])?
A: Its value is “— (—, less than 50% or 90% inhibition)”.

Q: And the EC90 (ADV-7 [8])?
A: Its EC90 is 48 ± 6 µM.

Q: What about the “EC90 H1N1, concentration required to inhibit 90% virus yield” value (H1N1 [17]) of the same compound?
A: Its value is “— (—, less than 50% or 90% inhibition)”.

Q: And the CC50 [18]?
A: The CC50 was 267 ± 31 µM.

Q: What about the “anti-EV71 inhibition at excessive virus inoculum” value (EV71 [19]) of the same compound?
A: The value was “Inhibition was eliminated”.

Q: What about the “virus titers of EV71 mixture with vs without compound (virucidal activity)” value (EV71 [20]) of the same compound?
A: Its value is “No significant difference”.

Q: What about the “virus titer reduction vs untreated cells” value (EV71 [21]; 80 μM, added post infection, EV71 100 TCID50) of the same compound?
A: The value was “approximately 5.0 log”.

Q: And the viability at 80 µM (EV71 [21]; Enterovirus A, RD, added post infection (therapeutic), EV71 100 TCID50, read-out: viability rates of the infected cells)?
A: The viability at 80 µM was roughly 100%.

Q: And the “virus titer during virus attachment (adsorption)” value (EV71 [9])?
A: Its value is “no significant decrease”.

Q: And the “release of EV71 from RD cells” value (EV71 [22])?
A: Its value is “unaffected”.

Q: And the “SI (selectivity index), ratio CC50/EC50” value (EV71 [10])?
A: The value was 21.

Q: And the EC50 (EV71 [11])?
A: The EC50 was 11 ± 3 µM.

Q: What about the “SI HSV-1, ratio CC50/EC50” value (HSV-1 [23]; Hep-2 cells) of the same compound?
A: The value was 6.

Q: And the EC50 (HSV-1 [23]; Human alphaherpesvirus 1, HEp-2, read-out: EC50 HSV-1)?
A: The EC50 was 14 ± 4 µM.

Q: And the “inhibition of HSV-1-induced plaque formation” value (HSV-1 [23]; inhibition achievable, Hep-2 cells)?
A: Its value is “approximately 80%”.

Q: What about the EC50 (CVB3 [12]) of the same compound?
A: Its EC50 is 12 ± 2 µM.

Q: What about the “SI CVB3, ratio CC50/EC50” value (CVB3 [12]) of the same compound?
A: Its value is 7.

Q: What about the “SI ADV-7, ratio CC50/EC50” value (ADV-7 [13]) of the same compound?
A: The value was 24.

Q: What about the EC50 (ADV-7 [13]) of the same compound?
A: The EC50 was 15 ± 2 µM.
